For 14 compounds, Kd results are on record in ChEMBL document CHEMBL3991601, “The target landscape of clinical kinase drugs” (Science, 2017).

Some targets named below: LIM domain kinase 2 (Homo sapiens, UniProt P53671); Myosin-14 (Homo sapiens, UniProt Q7Z406); Activated CDC42 kinase 1 (Homo sapiens, UniProt Q07912).
For assay [1], the target named is Bone morphogenetic protein receptor type-1A (Homo sapiens, UniProt P36894).
Assay [2] concerns the target Cyclin-dependent kinase 13 (Homo sapiens, UniProt Q14004).
In assay [3] the target is Chromodomain-helicase-DNA-binding protein 4 (Homo sapiens, UniProt Q14839).
Sequence of Chromodomain-helicase-DNA-binding protein 4 (Q14839 whole entry): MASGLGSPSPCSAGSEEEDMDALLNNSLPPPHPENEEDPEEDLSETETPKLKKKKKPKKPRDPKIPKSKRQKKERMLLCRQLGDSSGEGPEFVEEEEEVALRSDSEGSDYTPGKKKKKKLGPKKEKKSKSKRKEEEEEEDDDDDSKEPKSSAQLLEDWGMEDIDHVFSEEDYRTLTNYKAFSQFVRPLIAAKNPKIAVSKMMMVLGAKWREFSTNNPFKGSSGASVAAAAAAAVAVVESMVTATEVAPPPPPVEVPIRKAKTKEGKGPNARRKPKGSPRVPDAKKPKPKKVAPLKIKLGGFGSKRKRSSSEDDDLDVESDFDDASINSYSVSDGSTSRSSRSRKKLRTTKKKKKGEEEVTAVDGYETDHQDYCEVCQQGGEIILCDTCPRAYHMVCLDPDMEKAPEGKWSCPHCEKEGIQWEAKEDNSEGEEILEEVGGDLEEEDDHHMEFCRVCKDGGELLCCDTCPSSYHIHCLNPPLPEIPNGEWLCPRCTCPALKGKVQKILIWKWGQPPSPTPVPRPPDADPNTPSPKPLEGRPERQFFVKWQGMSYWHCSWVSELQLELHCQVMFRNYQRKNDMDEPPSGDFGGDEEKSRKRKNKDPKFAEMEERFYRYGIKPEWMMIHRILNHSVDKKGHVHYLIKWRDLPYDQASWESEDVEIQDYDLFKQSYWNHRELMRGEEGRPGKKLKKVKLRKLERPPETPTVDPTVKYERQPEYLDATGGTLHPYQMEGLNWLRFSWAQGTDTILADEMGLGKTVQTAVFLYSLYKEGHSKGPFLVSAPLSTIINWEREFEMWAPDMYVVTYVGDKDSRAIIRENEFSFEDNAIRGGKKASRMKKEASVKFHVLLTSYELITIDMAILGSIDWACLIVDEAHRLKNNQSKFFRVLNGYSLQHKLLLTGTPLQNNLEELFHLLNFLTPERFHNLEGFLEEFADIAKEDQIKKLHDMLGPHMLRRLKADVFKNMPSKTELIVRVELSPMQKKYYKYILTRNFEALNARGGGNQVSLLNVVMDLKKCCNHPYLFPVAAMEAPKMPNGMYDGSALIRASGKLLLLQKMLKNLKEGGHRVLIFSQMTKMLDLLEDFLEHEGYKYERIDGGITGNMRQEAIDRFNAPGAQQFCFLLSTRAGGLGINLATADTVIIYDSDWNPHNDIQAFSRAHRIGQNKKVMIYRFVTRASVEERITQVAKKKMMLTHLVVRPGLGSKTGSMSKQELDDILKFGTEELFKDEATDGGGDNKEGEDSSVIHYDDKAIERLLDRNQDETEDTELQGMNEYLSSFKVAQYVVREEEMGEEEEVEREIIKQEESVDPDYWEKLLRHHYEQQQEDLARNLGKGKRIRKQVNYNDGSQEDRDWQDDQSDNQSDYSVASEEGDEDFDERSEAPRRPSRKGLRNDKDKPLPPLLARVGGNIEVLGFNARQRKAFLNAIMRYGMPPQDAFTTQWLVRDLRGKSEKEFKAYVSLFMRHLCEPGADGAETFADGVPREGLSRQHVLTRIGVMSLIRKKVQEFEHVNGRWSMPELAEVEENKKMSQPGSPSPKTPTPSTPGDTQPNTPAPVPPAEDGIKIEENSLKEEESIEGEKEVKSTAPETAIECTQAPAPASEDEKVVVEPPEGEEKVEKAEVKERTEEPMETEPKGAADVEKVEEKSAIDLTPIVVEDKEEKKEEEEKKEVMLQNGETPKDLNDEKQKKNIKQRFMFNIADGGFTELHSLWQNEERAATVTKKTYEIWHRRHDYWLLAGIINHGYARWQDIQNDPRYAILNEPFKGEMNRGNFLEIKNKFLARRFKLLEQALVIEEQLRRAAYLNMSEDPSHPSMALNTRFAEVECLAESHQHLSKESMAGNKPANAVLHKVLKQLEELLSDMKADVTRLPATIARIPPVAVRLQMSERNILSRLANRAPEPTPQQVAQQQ
A further assay has as its target T1, Scaffold protein ILK (Homo sapiens, UniProt Q13418).
T1 sequence (Q13418 whole entry): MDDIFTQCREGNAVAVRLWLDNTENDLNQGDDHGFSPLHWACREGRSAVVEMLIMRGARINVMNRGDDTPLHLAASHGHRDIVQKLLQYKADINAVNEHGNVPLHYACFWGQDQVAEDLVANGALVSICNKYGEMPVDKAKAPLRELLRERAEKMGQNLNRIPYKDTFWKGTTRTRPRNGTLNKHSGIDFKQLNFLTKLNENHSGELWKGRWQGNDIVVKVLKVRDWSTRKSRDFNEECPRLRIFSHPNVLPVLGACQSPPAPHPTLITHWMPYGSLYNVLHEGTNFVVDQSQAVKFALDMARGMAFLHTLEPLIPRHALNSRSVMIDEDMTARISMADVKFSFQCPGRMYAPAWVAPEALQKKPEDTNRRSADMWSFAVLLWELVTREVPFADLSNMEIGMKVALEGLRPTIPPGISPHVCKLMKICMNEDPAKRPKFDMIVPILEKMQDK

Assay [4] addresses T2, Mitogen-activated protein kinase kinase kinase 2 (Homo sapiens, UniProt Q9Y2U5).
T2 sequence (Q9Y2U5 whole entry): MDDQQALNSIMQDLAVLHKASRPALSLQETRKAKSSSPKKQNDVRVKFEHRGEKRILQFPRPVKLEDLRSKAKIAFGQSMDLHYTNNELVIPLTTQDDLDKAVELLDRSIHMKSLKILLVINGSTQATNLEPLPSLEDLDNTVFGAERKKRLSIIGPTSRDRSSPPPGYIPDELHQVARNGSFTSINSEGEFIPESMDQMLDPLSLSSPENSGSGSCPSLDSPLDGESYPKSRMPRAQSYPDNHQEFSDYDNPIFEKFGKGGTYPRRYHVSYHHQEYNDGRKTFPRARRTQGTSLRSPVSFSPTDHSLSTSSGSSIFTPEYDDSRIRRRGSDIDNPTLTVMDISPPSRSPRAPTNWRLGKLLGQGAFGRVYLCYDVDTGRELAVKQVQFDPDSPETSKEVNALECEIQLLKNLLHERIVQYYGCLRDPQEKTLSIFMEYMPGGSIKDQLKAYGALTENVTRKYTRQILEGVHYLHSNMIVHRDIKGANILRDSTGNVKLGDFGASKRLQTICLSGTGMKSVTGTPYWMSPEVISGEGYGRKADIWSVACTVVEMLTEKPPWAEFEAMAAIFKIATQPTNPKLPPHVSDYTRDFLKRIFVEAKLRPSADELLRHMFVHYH

For assay [5], the target named is T3, Mitogen-activated protein kinase kinase kinase 5 (Homo sapiens, UniProt Q99683).
T3 sequence (Q99683 whole entry): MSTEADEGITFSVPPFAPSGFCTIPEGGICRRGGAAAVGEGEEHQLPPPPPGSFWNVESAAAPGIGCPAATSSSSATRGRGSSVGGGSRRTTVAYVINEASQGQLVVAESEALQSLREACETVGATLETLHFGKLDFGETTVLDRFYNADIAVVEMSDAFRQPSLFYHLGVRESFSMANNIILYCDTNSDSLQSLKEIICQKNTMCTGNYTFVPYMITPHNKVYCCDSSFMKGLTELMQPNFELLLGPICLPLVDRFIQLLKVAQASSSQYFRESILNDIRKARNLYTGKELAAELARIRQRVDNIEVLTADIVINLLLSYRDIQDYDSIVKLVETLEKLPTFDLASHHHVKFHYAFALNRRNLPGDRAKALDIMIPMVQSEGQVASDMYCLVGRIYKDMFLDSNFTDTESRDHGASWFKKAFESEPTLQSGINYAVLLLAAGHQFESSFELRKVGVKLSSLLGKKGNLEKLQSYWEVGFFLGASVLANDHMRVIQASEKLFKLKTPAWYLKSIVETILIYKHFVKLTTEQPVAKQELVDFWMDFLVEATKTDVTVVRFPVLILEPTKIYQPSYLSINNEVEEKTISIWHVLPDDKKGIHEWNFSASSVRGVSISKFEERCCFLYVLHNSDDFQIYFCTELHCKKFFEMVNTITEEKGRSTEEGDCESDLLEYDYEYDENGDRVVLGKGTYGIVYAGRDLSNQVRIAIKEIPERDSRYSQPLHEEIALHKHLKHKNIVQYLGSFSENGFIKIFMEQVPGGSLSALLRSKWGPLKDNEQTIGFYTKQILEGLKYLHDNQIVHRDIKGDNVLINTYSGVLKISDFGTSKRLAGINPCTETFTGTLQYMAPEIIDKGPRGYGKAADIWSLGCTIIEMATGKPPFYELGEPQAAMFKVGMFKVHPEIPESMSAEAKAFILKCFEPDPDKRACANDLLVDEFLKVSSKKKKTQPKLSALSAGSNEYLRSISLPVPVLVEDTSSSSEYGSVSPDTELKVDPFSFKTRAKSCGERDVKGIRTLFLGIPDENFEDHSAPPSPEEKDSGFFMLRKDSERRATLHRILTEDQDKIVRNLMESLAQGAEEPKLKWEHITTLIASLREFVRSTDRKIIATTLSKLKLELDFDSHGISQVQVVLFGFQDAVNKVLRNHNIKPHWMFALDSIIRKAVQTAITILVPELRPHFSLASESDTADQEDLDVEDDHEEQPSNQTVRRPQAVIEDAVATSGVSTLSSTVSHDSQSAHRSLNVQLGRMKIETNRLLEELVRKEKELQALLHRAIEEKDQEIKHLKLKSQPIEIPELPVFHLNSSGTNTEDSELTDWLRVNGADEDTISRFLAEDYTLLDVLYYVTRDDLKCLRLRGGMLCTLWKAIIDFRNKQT

In assay [6] the target is Mitogen-activated protein kinase 11 (Homo sapiens, UniProt Q15759).
In assay [7] the target is Maternal embryonic leucine zipper kinase (Homo sapiens, UniProt Q14680).
The target in assay [8] is Proto-oncogene tyrosine-protein kinase Src (Homo sapiens, UniProt P12931).
The target in assay [9] is Casein kinase I isoform alpha (Homo sapiens, UniProt P48729).

Calls of active or inactive are those of the source. Where only a bound is given, the exact number is not on record here.
Note: in the data inactive means no Kd found up to 30 µM.

Sequence of Activated CDC42 kinase 1 (Q07912 whole entry): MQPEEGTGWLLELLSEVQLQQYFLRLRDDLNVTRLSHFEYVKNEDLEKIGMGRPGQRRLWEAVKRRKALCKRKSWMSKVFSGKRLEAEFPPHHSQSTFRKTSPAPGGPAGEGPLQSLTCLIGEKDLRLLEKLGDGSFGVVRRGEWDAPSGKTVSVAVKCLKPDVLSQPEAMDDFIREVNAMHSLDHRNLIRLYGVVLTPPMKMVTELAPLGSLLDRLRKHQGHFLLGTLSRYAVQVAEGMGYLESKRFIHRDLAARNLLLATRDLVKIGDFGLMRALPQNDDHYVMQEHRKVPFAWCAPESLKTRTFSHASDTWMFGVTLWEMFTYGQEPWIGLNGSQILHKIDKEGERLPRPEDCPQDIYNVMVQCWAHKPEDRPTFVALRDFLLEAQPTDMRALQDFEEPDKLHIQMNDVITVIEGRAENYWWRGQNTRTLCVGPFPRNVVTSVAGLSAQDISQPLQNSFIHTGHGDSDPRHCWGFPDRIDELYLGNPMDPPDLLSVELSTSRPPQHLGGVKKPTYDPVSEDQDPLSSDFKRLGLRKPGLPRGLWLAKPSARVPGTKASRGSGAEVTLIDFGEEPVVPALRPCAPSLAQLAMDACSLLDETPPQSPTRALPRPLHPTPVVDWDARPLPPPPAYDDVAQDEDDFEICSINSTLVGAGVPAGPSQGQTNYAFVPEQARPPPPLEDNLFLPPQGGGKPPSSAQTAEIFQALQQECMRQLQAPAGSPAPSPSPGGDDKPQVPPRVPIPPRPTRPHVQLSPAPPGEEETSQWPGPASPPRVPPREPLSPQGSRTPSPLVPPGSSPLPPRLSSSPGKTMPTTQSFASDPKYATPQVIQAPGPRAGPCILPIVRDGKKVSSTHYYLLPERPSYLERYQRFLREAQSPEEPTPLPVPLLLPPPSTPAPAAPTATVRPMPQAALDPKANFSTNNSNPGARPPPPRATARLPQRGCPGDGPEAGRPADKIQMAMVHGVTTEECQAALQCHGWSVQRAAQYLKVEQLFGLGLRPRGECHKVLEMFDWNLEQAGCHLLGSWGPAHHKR
Sequence of Myosin-14 (Q7Z406 whole entry): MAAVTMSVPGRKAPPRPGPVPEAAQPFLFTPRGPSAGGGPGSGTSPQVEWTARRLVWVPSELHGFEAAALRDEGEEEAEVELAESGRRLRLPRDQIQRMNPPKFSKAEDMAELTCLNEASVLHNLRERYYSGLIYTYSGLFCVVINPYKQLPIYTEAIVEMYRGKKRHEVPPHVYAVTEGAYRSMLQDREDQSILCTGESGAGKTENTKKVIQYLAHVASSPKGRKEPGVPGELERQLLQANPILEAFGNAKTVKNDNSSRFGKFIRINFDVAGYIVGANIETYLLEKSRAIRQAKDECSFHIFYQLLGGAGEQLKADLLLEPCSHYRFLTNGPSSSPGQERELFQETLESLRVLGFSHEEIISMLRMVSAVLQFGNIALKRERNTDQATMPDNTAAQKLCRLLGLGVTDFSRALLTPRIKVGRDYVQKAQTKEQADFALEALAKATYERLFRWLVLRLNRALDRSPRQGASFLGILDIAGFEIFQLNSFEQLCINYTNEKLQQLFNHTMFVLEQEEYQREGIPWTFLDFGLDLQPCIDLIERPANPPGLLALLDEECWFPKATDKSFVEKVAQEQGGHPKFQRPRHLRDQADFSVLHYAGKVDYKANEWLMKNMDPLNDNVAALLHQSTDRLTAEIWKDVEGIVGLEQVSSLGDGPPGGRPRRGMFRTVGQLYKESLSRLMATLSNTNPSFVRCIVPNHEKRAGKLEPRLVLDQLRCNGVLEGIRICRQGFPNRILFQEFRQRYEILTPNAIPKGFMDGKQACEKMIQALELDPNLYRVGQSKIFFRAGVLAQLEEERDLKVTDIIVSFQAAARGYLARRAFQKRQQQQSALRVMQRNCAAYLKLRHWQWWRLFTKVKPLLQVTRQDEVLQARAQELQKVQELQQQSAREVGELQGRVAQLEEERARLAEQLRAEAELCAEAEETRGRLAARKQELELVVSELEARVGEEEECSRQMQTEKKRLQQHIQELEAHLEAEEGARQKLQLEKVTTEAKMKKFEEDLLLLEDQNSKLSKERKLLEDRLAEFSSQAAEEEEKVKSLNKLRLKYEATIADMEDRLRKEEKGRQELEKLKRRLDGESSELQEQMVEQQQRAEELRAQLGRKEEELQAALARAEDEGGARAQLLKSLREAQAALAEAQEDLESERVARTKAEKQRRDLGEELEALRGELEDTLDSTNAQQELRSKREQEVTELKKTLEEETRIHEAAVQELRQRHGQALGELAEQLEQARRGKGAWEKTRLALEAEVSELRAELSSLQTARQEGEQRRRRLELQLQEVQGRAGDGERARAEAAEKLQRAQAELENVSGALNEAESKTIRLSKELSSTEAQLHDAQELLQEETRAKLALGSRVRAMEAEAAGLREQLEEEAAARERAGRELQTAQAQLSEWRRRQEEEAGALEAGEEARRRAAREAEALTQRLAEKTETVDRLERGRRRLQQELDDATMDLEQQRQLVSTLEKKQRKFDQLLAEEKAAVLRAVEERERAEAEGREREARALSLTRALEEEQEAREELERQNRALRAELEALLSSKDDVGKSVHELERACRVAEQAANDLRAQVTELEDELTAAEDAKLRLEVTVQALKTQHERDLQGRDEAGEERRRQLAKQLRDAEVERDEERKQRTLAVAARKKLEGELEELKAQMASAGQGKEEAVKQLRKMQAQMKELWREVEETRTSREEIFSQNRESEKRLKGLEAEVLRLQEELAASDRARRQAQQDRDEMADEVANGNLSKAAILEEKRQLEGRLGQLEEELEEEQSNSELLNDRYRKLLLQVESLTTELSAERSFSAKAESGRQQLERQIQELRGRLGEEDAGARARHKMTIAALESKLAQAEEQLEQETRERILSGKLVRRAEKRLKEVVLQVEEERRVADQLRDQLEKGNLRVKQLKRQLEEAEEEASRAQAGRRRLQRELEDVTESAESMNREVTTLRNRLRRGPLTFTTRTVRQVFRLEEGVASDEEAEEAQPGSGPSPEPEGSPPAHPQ

In the case of `Cn1c(=O)n(-c2ccc(C(C)(C)C#N)cc2)c2c3cc(-c4cnc5ccccc5c4)ccc3ncc21` [DACTOLISIB], the Kd (in [1]; in assay [2]; in assay [3]; at Scaffold protein ILK; at LIM domain kinase 2; in assay [4]) was > 30 µM (inactive) in each case. For the same compound, the Kd (in assay [5]; in [6]; in assay [7]; at Myosin-14; in assay [8]) was > 30 µM (inactive) in each case.
Regarding `C[C@@]1(C(=O)Nc2ccc(F)nc2)CCCN1c1nc(Nc2cc(C3CC3)n[nH]2)c2cccn2n1` [BMS-754807], the Kd (in assay [3]; on Scaffold protein ILK) was > 30 µM (inactive) each time.
In the case of `CNC(=O)c1ccc(Nc2ncc(C(F)(F)F)c(NCc3nccnc3N(C)S(C)(=O)=O)n2)cc1` [DEFACTINIB], the Kd was > 30 µM (inactive) in assay [1]; 3.11 µM (active) in assay [2]; > 30 µM (inactive) in assay [3]; > 30 µM (inactive) in assay [9]; > 30 µM (inactive) on Scaffold protein ILK; > 30 µM (inactive) on LIM domain kinase 2. Further, the Kd (in assay [4]; in assay [5]; in assay [6]; on Myosin-14; in [8]; at Activated CDC42 kinase 1) was > 30 µM (inactive) throughout.
With `CN(c1ncccc1CNc1nc(Nc2ccc3c(c2)CC(=O)N3)ncc1C(F)(F)F)S(C)(=O)=O` [PF-00562271], the Kd is > 30 µM (inactive) in [1]; 4.5 µM (active) in [2]; > 30 µM (inactive) in assay [3]; > 30 µM (inactive) on Scaffold protein ILK; > 30 µM (inactive) on LIM domain kinase 2; > 30 µM (inactive) in [4]. Moreover, the Kd (in assay [5]; in assay [6]; on Myosin-14) was > 30 µM (inactive) in each case.
Turning to `N#CCNC(=O)c1ccc(-c2ccnc(Nc3ccc(N4CCOCC4)cc3)n2)cc1` [MOMELOTINIB], the Kd (in assay [1]; in assay [2]; in assay [9]; on Scaffold protein ILK; on LIM domain kinase 2; in assay [4]) was > 30 µM (inactive) in each case. In addition, the Kd (in assay [5]; on Myosin-14; in assay [8]; on Activated CDC42 kinase 1) was > 30 µM (inactive) in each case.
On to `COc1cc2c(Oc3ccc4[nH]c(C)cc4c3F)ncnc2cc1OCCCN1CCCC1` [CEDIRANIB], for which the Kd (in assay [3]; on Scaffold protein ILK; at Myosin-14; in assay [8]) was > 30 µM (inactive) throughout.
For the compound `Cn1cnc2c(F)c(Nc3ccc(Br)cc3Cl)c(C(=O)NOCCO)cc21` [SELUMETINIB], the Kd (in assay [3]; on Scaffold protein ILK; on Myosin-14) was > 30 µM (inactive) throughout.
Take `COc1cc2c(N3CCN(C(=O)Nc4ccc(OC(C)C)cc4)CC3)ncnc2cc1OCCCN1CCCCC1` [TANDUTINIB]: the Kd (in [3]; at Scaffold protein ILK; at Myosin-14) was > 30 µM (inactive) throughout.
In the case of `CCN(CCCOc1ccc2c(Nc3cc(CC(=O)Nc4cccc(F)c4)n[nH]3)ncnc2c1)CCOP(=O)(O)O` [BARASERTIB], the Kd (in assay [1]; in assay [2]; in assay [3]; on LIM domain kinase 2; in assay [4]; in [5]) was > 30 µM (inactive) in each case. The Kd (in [6]; at Myosin-14; in assay [8]) was > 30 µM (inactive) throughout.
For the compound `CC1(C)CNc2cc(NC(=O)c3cccnc3NCc3ccncc3)ccc21` [MOTESANIB], the Kd (in [3]; on Scaffold protein ILK) was > 30 µM (inactive) throughout.
Regarding `CN(C)C/C=C/C(=O)Nc1cc2c(Nc3ccc(F)c(Cl)c3)ncnc2cc1O[C@H]1CCOC1` [AFATINIB], the Kd (in assay [3]; on Scaffold protein ILK; on Myosin-14) was > 30 µM (inactive) each time.
As for `O=S(=O)(c1cccc2cnccc12)N1CCCNCC1` [FASUDIL], the Kd (in [1]; in assay [3]; at Scaffold protein ILK; on LIM domain kinase 2; in assay [4]; in [5]) was > 30 µM (inactive) each time. Besides, the Kd is > 30 µM (inactive) in [6], 1.92 µM (active) in assay [7] and > 30 µM (inactive) on Myosin-14.
As for `C[C@]1(O)C[C@@H](c2nc(-c3ccc4ccc(-c5ccccc5)nc4c3)c3c(N)nccn32)C1` [LINSITINIB], the Kd (in [1]; in assay [2]; in assay [3]; on LIM domain kinase 2; in assay [4]; in [5]) was > 30 µM (inactive) in each case. Further, the Kd is 0.01 µM in assay [6], > 30 µM (inactive) on Myosin-14 and > 30 µM (inactive) on Activated CDC42 kinase 1.
Take `CC(C)CC(=O)Nc1[nH]nc2c1CN(C(=O)C1CCN(C)CC1)C2(C)C` [PHA-793887]: the Kd is > 30 µM (inactive) in assay [1]; 3.58 µM (active) in assay [2]; > 30 µM (inactive) in assay [3]; > 30 µM (inactive) in assay [9]; > 30 µM (inactive) on Scaffold protein ILK; > 30 µM (inactive) on LIM domain kinase 2. Besides, the Kd (in [4]; in assay [5]; in assay [6]; at Myosin-14; in assay [8]; on Activated CDC42 kinase 1) was > 30 µM (inactive) in each case.

What is called Kd is a measure of binding affinity in units of concentration.
